Reference: patent US20170209544A1, “A PEPTIDE THERAPY TO COUNTERACT INSULIN RESISTANCE AND TYPE 2 DIABETES” (The Regents of the University of California, priority 2014, published 2017)
Where no end group is shown, it is not given here.

Experiments:
[1] = test system: KO-DIO mice; experiment: GTT, ITT and fasting insulin in PST-treated KO-DIO mice; format: in vivo
Method: For glucose tolerance tests (GTT), glucose (1 mg/g) was injected intraperitoneally (IP-GTT) (at time zero) or gavaged orally (O-GTT) after a 12-hours fast. Tail-vein glucose levels were measured at −30, 0, 15, 30, 60, 90, and 120 minutes. For insulin tolerance tests (ITT), insulin (0.4 mU/g) was injected intraperitoneally and blood glucose levels were measured at the indicated time points. Chronic PST (5 μg/g/day) and PSTv1 (10 μg/day) treatments were carried out for 15 days. For acute treatment, either peptides or saline were injected 30 minutes before glucose or insulin injection. Synergy Software Kaleidagraph Version 4.0 calculated the area under the curve (AUC) for each line curve.
Despite increased obesity, KO-DIO mice maintained insulin sensitivity as shown by GTT and ITT. […] WT-DIO and KO-DIO male mice with mixed genetic background were fasted for 12 hrs and subjected to IP-GTT (2-way ANOVA: Strain, p<0.0001; Time, p<0.0001; Interaction, p<0.045; n=8, as shown in FIGS. 12A and 12B), oral GTT (2-way ANOVA: Strain, p<0.0001; Time, p<0.0001; Interaction, p=0.09; n=8, as shown in FIGS. 12C and 12D), or IP-ITT (2-way ANOVA: Treatment (WT), p<0.0001; Time, p<0.0001; Interaction, p=0.56; Treatment (KO), p<0.0001; Time, p<0.0001; Interaction, 0.43; n=9, as shown in FIGS. 12E and 12F), and AUC for glucose excursions were determined (see FIGS. 12B, 12D and 12F). […] and the corresponding AUC were shown in FIGS. 12E and 12F, respectively. Body weight-matched WT-DIO and KO-DIO mice were fasted for 12 hrs and subjected to clamp studies to determine glucose infusion rate (GIR, shown in FIG. 12G), glucose disposal rate (GDR, shown in FIG. 12H), (I) insulin-stimulated GDR (IS-GDR, shown in FIG. 12I) and % suppression of hepatic glucose production (HGP) (n=8-9, shown in FIG. 12J). Fasting (12 hrs) basal levels of plasma insulin before (FIG. 12K) and after (FIG. 12L) chronic PST treatment (5 μg/g BW/day, IP for 15 days) (n=6) were shown. “&” Indicates comparison between WT-DIO+Sal and KO-DIO+Sal, “$” indicates comparison between WT-DIO+Sal and WT-DIO+PST, “#” indicates comparison between KO-DIO+Sal and KO-DIO+PST, and “*” indicates comparison between the indicated groups. “*, $ or #”: P<0.05, “**, &&, ## or $$”: p<0.01, “***, ### or &&&”: p<0.001.

[2] = test system: KO-DIO mice; experiment: Adipose tissue inflammatory genes and plasma cytokines in PST-treated KO-DIO mice; format: in vivo; conditions: PST 5 μg/g BW for 15 days
Method: (§1) RNA from tissues was extracted using a kit (RNeasy Plus, Qiagen, Valencia, Calif.). After DNase digestion, 200 ng of RNA was transcribed into cDNA in a 20-μl reaction using a High Capacity cDNA Archive kit and this cDNA was amplified. PCR (25-μl reactions) contained 5 μl of cDNA, 2×SYBR Green PCR Master Mix, and 400 nM of each primer. Differences in the threshold cycle number (ΔCt) between the target gene, the housekeeping gene Gapdh and the ribosomal protein gene 36B4 were used to calculate differences in expression. Primer sequences are provided below.
Plasma cytokine concentrations were determined by a multiplex system from Quansys Biosciences (Logan, Utah).
As shown in FIGS. 17A-17H, PST modulates adipose tissue inflammation. A group of KO-DIO mice were injected with saline or PST (5 μg/g BW) for 15 days. Weight-matched saline-treated WT-DIO, KO-DIO and PST-treated KO-DIO mice were fasted for 12 hr and sacrificed. Blood was collected to measure plasma cytokine levels. Tissues were subjected to RNA extraction, cDNA preparation and RT-qPCR analysis for cytokines (FIG. 17A, n=6), pro-inflammatory genes (FIG. 17B: Cd11c & IL-12p40, n=6; FIG. 17C: iNos, n=6), and anti-inflammatory genes (FIG. 17D: Arg-1 & IL-10, n=6; FIG. 17E: Mgl-1, Mgl-2 and Ym1, n=6). “*” Denotes comparison between the indicated groups. “*”: P<0.05, “**”: p<0.01, “***”: p<0.001.

[3] = test system: adipocytes; experiment: Leptin production in adipocytes; format: cell-based
From the text: Mutant PST peptides were synthesized and screened. The peptides were synthesized as various deletion peptides of PST. Native PST (SEQ ID NO. 2) inhibited insulin-stimulated glucose uptake and leptin production in adipocytes. The inventors tested various deletion mutant PST peptides whether one or more of them would compete and prevent native PST action in adipocytes.

[4] = test system: KO-DIO mice; experiment: Hepatic gene expression in PST-treated KO-DIO mice; format: in vivo; conditions: PST 5 μg/g BW for 15 days
Method: as §1
To determine chronic effects, KO-NCD mice were treated with saline, PST (5 μg/g BW), PSTv1 (10 μg/g BW) or PST+PSTv1 for 15 days, fasted for 12 hrs after the last of injection and subjected to (FIG. 14C) GTT (2-way ANOVA: Treatment (Sal vs PST), Time, p<0.0001; Interaction, p<0.05; Treatment (PST vs PSTv1), p<0.0001; Time, p<0.0001; Interaction, p<0.01; n=7). The corresponding AUC is shown in (FIG. 14D). FIG. 14E reports liver glycogen at basal and during clamp in DIO mice (n=6). FIG. 14F reports chronic effects of PST (5 μg/g BW for 15 days) on expression of hepatic gluconeogenic genes (Pepck and G6pase) in DIO mice (n=6). FIG. 14G reports chronic effects of PST (5 μg/g BW for 15 days) on expression of hepatic lipid metabolic (Acc, Ppara, Cpt-1, Acox-1 and Srebp-1) genes in DIO mice (n=6). […]

[5] = molecular target: GRP78 (Homo sapiens, UniProt P11021); experiment: GRP78 ATPase enzymatic activity; format: biochemical
Chain of GRP78 (P11021 19-654, species assumed): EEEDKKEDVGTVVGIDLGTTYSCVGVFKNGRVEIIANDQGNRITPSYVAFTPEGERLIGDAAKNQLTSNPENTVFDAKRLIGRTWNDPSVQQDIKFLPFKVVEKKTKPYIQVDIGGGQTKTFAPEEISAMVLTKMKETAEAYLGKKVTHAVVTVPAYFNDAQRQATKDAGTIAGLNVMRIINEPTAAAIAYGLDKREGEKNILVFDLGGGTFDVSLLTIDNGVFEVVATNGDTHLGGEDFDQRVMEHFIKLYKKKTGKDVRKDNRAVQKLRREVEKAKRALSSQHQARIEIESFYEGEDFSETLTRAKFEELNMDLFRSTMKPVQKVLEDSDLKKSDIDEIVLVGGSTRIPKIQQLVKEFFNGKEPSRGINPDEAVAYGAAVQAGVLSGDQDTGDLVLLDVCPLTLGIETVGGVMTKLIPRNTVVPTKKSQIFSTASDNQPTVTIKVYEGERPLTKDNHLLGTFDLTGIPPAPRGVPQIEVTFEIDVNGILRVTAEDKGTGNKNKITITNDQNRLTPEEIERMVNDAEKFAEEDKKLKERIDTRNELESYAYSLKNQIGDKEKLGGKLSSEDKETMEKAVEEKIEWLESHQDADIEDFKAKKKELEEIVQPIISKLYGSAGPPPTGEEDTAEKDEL

[6] = chronic PST 5 μg/g BW/day IP for 15 days, over WT-DIO levels

GRP78's ATPase enzymatic activity [5]: inhibits
Substance: PEGKGEQEHSQQKEEEEEMAVVPQGLFRG-amide (PEGKGEQEHSQQKEEEEEMAVVPQGLFRG-NH2) [PST, Wild-type human pancreastatin, a chromogranin A derived peptide]
blood glucose ([1]; PST for 5 days, Chga-KO mice on high fat diet): led to hyperglycemia
insulin sensitivity phenotype on HFD ([1]; chronic PST 5 μg/g BW for 15 days): abolished
fasting glucose [1, 6]: raised
fasting plasma insulin levels [1, 6]: raised
plasma levels of IL-12p70 and Mcp-1 [2]: raised
plasma levels of Ifnγ, IL-6, Mip-1α, Kc and Tnfα [2]: had no effect
expression of Arg-1 and IL-10 ([2]; adipose tissue): significantly reduced
expression of Mgl-1 or Mgl-2 ([2]; adipose tissue): had no effect
expression of Ym-1 ([2]; adipose tissue): trend toward downregulating
expression of pro-inflammatory genes IL-1β, Tnfα, IL-6, Mcp-1 and iNos ([2]; adipose tissue): increased expression
leptin production [3]: inhibited
lower mRNA levels of Pepck and G6pase in KO-DIO liver [4]: reversed
expression of Acox-1 and Cpt-1 ([4]; liver): increased
